Test results published in paper PMC5218480 (PLoS ONE, 2017).

Test system: MV-4-11 cells
Test: Gene expression microarray analysis (Affymetrix PrimeView) and GSEA
Type: cell-based, human
Design: RFU PODN (11730768_x_at) / Fold change /veh PODN (11730768_x_at) / RFU LINC00158 (11744669_a_at) / Fold change /veh LINC00158 (11744669_a_at) / RFU DUSP10 (11751237_a_at) / Fold change /veh DUSP10 (11751237_a_at) / RFU ID3 (11757404_x_at) / Fold change /veh ID3 (11757404_x_at) / RFU PLEKHG5 (11737974_s_at) / Fold change /veh PLEKHG5 (11737974_s_at) / RFU LRRC4B (11730491_at) / Fold change /veh LRRC4B (11730491_at) / RFU GIMAP4 (11747438_a_at) / Fold change /veh GIMAP4 (11747438_a_at) / RFU KRT8 (11758183_x_at) / Fold change /veh KRT8 (11758183_x_at) / RFU CNN1 (11734310_a_at) / Fold change /veh CNN1 (11734310_a_at) / RFU VPS37D (11726825_at) / Fold change /veh VPS37D (11726825_at) / RFU C10orf10 (11716522_x_at) / Fold change /veh C10orf10 (11716522_x_at) / RFU KIR2DL2 /// KIR2DL4 /// KIR2DL5A /// KIR2DL5B /// KIR2DS1 /// KIR2DS2 /// KIR2DS3 /// KIR2DS4 /// KIR3DL3 /// KIR3DL3 /// KIR3DS1 (11738374_at) / Fold change /veh KIR2DL2 /// KIR2DL4 /// KIR2DL5A /// KIR2DL5B /// KIR2DS1 /// KIR2DS2 /// KIR2DS3 /// KIR2DS4 /// KIR3DL3 /// KIR3DL3 /// KIR3DS1 (11738374_at) / RFU C1QL1 (11718748_at) / Fold change /veh C1QL1 (11718748_at) / RFU TMPRSS4 (11747572_a_at) / Fold change /veh TMPRSS4 (11747572_a_at) / RFU HAMP (11756126_x_at) / Fold change /veh HAMP (11756126_x_at) / RFU RNFT2 (11725882_a_at) / Fold change /veh RNFT2 (11725882_a_at) / RFU NR4A2 (11747474_a_at) / Fold change /veh NR4A2 (11747474_a_at) / RFU ABCC12 (11746883_a_at) / Fold change /veh ABCC12 (11746883_a_at) / RFU TMEM136 (11760407_x_at) / Fold change /veh TMEM136 (11760407_x_at) / RFU CLDN22 /// WWC2 (11732394_at) / Fold change /veh CLDN22 /// WWC2 (11732394_at) / RFU HLA-DPB1 (11760878_x_at) / Fold change /veh HLA-DPB1 (11760878_x_at) / RFU SPINT1 (11716480_a_at) / Fold change /veh SPINT1 (11716480_a_at) / RFU GAP43 (11754022_s_at) / Fold change /veh GAP43 (11754022_s_at) / RFU A4GNT (11735810_at) / Fold change /veh A4GNT (11735810_at) / RFU PRB3 (11715151_x_at) / Fold change /veh PRB3 (11715151_x_at) / RFU TUBB4B (11761932_at) / Fold change /veh TUBB4B (11761932_at) / RFU CAPN14 (11732068_a_at) / Fold change /veh CAPN14 (11732068_a_at) / RFU TMCC2 (11721928_a_at) / Fold change /veh TMCC2 (11721928_a_at) / RFU IRGQ (11745062_a_at) / Fold change /veh IRGQ (11745062_a_at) / RFU FAM174B (11720279_a_at) / Fold change /veh FAM174B (11720279_a_at) / RFU TMPRSS4 (11748680_a_at) / Fold change /veh TMPRSS4 (11748680_a_at) / RFU FAM212B (11763350_a_at) / Fold change /veh FAM212B (11763350_a_at) / RFU PLEKHG5 (11743358_a_at) / Fold change /veh PLEKHG5 (11743358_a_at) / RFU ZSCAN30 (11745921_a_at) / Fold change /veh ZSCAN30 (11745921_a_at) / RFU CMKLR1 (11741424_a_at) / Fold change /veh CMKLR1 (11741424_a_at) / RFU LOC101060620 /// MAPK8IP1 (11723275_at) / Fold change /veh LOC101060620 /// MAPK8IP1 (11723275_at) / RFU SPTSSB (11747773_x_at) / Fold change /veh SPTSSB (11747773_x_at) / RFU PRSS12 (11739890_at) / Fold change /veh PRSS12 (11739890_at) / RFU BIN1 (11741810_x_at) / Fold change /veh BIN1 (11741810_x_at) / RFU WNT11 (11732464_a_at) / Fold change /veh WNT11 (11732464_a_at) / RFU C10orf10 (11716521_a_at) / Fold change /veh C10orf10 (11716521_a_at) / RFU C5orf56 (11738089_at) / Fold change /veh C5orf56 (11738089_at) / RFU CYB561 (11721691_x_at) / Fold change /veh CYB561 (11721691_x_at) / RFU ANKRD19P (11752326_a_at) / Fold change /veh ANKRD19P (11752326_a_at) / RFU OR2T12 /// OR2T33 /// OR2T8 (11738714_s_at) / Fold change /veh OR2T12 /// OR2T33 /// OR2T8 (11738714_s_at) / RFU VCAN (11748164_a_at) / Fold change /veh VCAN (11748164_a_at) / RFU JSRP1 (11732532_at) / Fold change /veh JSRP1 (11732532_at) / RFU KRTAP10-11 (11738290_x_at) / Fold change /veh KRTAP10-11 (11738290_x_at) / RFU MYO3A (11730013_a_at) / Fold change /veh MYO3A (11730013_a_at) / RFU EBF3 (11725865_a_at) / Fold change /veh EBF3 (11725865_a_at) / RFU CAMK2N1 (11719241_x_at) / Fold change /veh CAMK2N1 (11719241_x_at) / RFU C5orf56 (11738088_a_at) / Fold change /veh C5orf56 (11738088_a_at) / RFU OLFML3 (11715873_a_at) / Fold change /veh OLFML3 (11715873_a_at) / RFU LOC100653217 /// NTM (11731650_a_at) / Fold change /veh LOC100653217 /// NTM (11731650_a_at) / RFU MAPK11 (11762145_a_at) / Fold change /veh MAPK11 (11762145_a_at) / RFU FIZ1 (11724087_x_at) / Fold change /veh FIZ1 (11724087_x_at) / RFU OASL (11726364_x_at) / Fold change /veh OASL (11726364_x_at) / RFU SOX15 (11748057_x_at) / Fold change /veh SOX15 (11748057_x_at) / RFU CD79A (11719716_a_at) / Fold change /veh CD79A (11719716_a_at) / RFU HIST1H1D (11736915_at) / Fold change /veh HIST1H1D (11736915_at) / RFU CASKIN2 (11723855_a_at) / Fold change /veh CASKIN2 (11723855_a_at) / RFU LOC730098 (11760151_x_at) / Fold change /veh LOC730098 (11760151_x_at) / RFU OR4N2 (11742367_at) / Fold change /veh OR4N2 (11742367_at) / RFU PRRT2 (11749266_a_at) / Fold change /veh PRRT2 (11749266_a_at) / RFU SNX32 (11753110_a_at) / Fold change /veh SNX32 (11753110_a_at) / RFU CDHR5 (11726645_a_at) / Fold change /veh CDHR5 (11726645_a_at) / RFU RCAN1 (11760418_a_at) / Fold change /veh RCAN1 (11760418_a_at) / RFU FAM167A (11723789_a_at) / Fold change /veh FAM167A (11723789_a_at) / RFU FAM26E (11764081_at) / Fold change /veh FAM26E (11764081_at) / RFU ISYNA1 (11749810_s_at) / Fold change /veh ISYNA1 (11749810_s_at) / RFU ACY1 (11761880_at) / Fold change /veh ACY1 (11761880_at) / RFU 11764098_at / Fold change /veh 11764098_at / RFU SAMD14 (11745864_x_at) / Fold change /veh SAMD14 (11745864_x_at) / RFU NPB (11741838_a_at) / Fold change /veh NPB (11741838_a_at) / RFU TMPRSS6 (11731388_a_at) / Fold change /veh TMPRSS6 (11731388_a_at) / RFU KRTAP10-2 (11738614_at) / Fold change /veh KRTAP10-2 (11738614_at) / RFU ARHGAP8 /// PRR5-ARHGAP8 (11727945_x_at) / Fold change /veh ARHGAP8 /// PRR5-ARHGAP8 (11727945_x_at) / RFU KRTAP5-7 /// NADSYN1 (11734609_at) / Fold change /veh KRTAP5-7 /// NADSYN1 (11734609_at) / RFU RASL12 (11751679_a_at) / Fold change /veh RASL12 (11751679_a_at) / RFU CDKN2B (11736163_a_at) / Fold change /veh CDKN2B (11736163_a_at) / RFU PRF1 (11729649_at) / Fold change /veh PRF1 (11729649_at) / RFU, ZNF638 /// ZNF638-IT1 / Fold change vs veh, ZNF638 /// ZNF638-IT1 / RFU, PANK3 / Fold change vs veh, PANK3 / RFU, SH3YL1 / Fold change vs veh, SH3YL1 / RFU, ZEB2 / Fold change vs veh, ZEB2 / RFU, NRIP1 / Fold change vs veh, NRIP1 / RFU, PTTG1IP / Fold change vs veh, PTTG1IP / RFU, CAPN2 / Fold change vs veh, CAPN2 / RFU, MED14 / Fold change vs veh, MED14 / RFU, SNORA58 / Fold change vs veh, SNORA58 / RFU, C1orf63 / Fold change vs veh, C1orf63 / RFU, LRRFIP1 / Fold change vs veh, LRRFIP1 / RFU, NDUFAF7 / Fold change vs veh, NDUFAF7 / RFU, SLC12A2 / Fold change vs veh, SLC12A2 / RFU, IBTK / Fold change vs veh, IBTK / RFU, ESF1 / Fold change vs veh, ESF1 / Fold change vs veh, TMEM50B / RFU, TAOK1 / Fold change vs veh, TAOK1 / RFU, ACBD3 / Fold change vs veh, ACBD3 / RFU, TMA16 / Fold change vs veh, TMA16 / RFU, RWDD3 / Fold change vs veh, RWDD3 / RFU, BCAT1 / Fold change vs veh, BCAT1 / RFU, EDEM3 / Fold change vs veh, EDEM3 / RFU, TMEM33 / Fold change vs veh, TMEM33 / RFU, WDR75 / Fold change vs veh, WDR75 / RFU, AHCTF1 / Fold change vs veh, AHCTF1 / RFU, TFRC / Fold change vs veh, TFRC / RFU, ZDHHC17 / Fold change vs veh, ZDHHC17 / RFU, NOM1 / Fold change vs veh, NOM1 / RFU, ARL8B / Fold change vs veh, ARL8B / RFU, ZBTB11 / Fold change vs veh, ZBTB11 / RFU, TAMM41 / Fold change vs veh, TAMM41 / RFU, KIAA1704 /// LOC100996395 / Fold change vs veh, KIAA1704 /// LOC100996395 / RFU, ING1 / Fold change vs veh, ING1 / RFU, TRMT61B / Fold change vs veh, TRMT61B / RFU, FUBP3 / Fold change vs veh, FUBP3 / RFU, TP53 / Fold change vs veh, TP53 / RFU, TNKS2 / Fold change vs veh, TNKS2 / RFU, ZFP14 / Fold change vs veh, ZFP14 / RFU, ACTR2 / Fold change vs veh, ACTR2 / RFU, PPP3R1 / Fold change vs veh, PPP3R1 / RFU, PIK3R1 / Fold change vs veh, PIK3R1 / RFU, HNRNPA1 / Fold change vs veh, HNRNPA1 / RFU, RNF170 / Fold change vs veh, RNF170 / RFU, ZNF28 / Fold change vs veh, ZNF28 / RFU, RNGTT / Fold change vs veh, RNGTT / RFU, OGT / Fold change vs veh, OGT / RFU, BRD1 / Fold change vs veh, BRD1 / RFU, MARS / Fold change vs veh, MARS / RFU, ZNF655 / Fold change vs veh, ZNF655 / RFU, FAHD1 / Fold change vs veh, FAHD1 / RFU, BDP1 / Fold change vs veh, BDP1 / RFU, LRRCC1 / Fold change vs veh, LRRCC1 / RFU, ARID1A / Fold change vs veh, ARID1A / RFU, ZNF146 / Fold change vs veh, ZNF146 / RFU, ZNF330 / Fold change vs veh, ZNF330 / RFU, GPN3 / Fold change vs veh, GPN3 / RFU, C9orf123 / Fold change vs veh, C9orf123 / RFU, N4BP2L2 / Fold change vs veh, N4BP2L2 / RFU, ARFIP1 / Fold change vs veh, ARFIP1 / RFU, FAM179B / Fold change vs veh, FAM179B / RFU, BCL10 / Fold change vs veh, BCL10 / RFU, UHRF1BP1L / Fold change vs veh, UHRF1BP1L / RFU, BET1 / Fold change vs veh, BET1 / RFU, CNOT2 / Fold change vs veh, CNOT2 / RFU, ZNF268 / Fold change vs veh, ZNF268 / Fold change vs veh, ZNF507 / RFU, DGCR2 / Fold change vs veh, DGCR2 / RFU, WDSUB1 / Fold change vs veh, WDSUB1 / Fold change vs veh, HSP90B1 /// MIR3652 / RFU, ADSS / Fold change vs veh, ADSS / RFU, GK / Fold change vs veh, GK / RFU, ZNF148 / Fold change vs veh, ZNF148 / RFU, TAF9 / Fold change vs veh, TAF9 / RFU, SLC1A5 / Fold change vs veh, SLC1A5 / RFU, SLMO2 / Fold change vs veh, SLMO2 / RFU, ABCC4 / Fold change vs veh, ABCC4 / RFU, LOC101060439 /// RAP1B / Fold change vs veh, LOC101060439 /// RAP1B / RFU, RFX7 / Fold change vs veh, RFX7 / RFU, GTPBP10 / Fold change vs veh, GTPBP10 / RFU, CNEP1R1 / Fold change vs veh, CNEP1R1 / RFU, BIVM-ERCC5 /// ERCC5 / Fold change vs veh, BIVM-ERCC5 /// ERCC5 / RFU, ILF3 / Fold change vs veh, ILF3 / RFU 11762660_at / Fold change /veh 11762660_at / RFU VCAN (11757783_s_at) / Fold change /veh VCAN (11757783_s_at) / RFU DDX43 (11728927_at) / Fold change /veh DDX43 (11728927_at) / RFU KRT8 (11758188_x_at) / Fold change /veh KRT8 (11758188_x_at) / RFU NKD1 (11759106_at) / Fold change /veh NKD1 (11759106_at) / RFU SRD5A1 (11742802_a_at) / Fold change /veh SRD5A1 (11742802_a_at) / RFU TPSAB1 /// TPSB2 (11721975_s_at) / Fold change /veh TPSAB1 /// TPSB2 (11721975_s_at) / RFU GSTM3 (11746129_a_at) / Fold change /veh GSTM3 (11746129_a_at) / RFU IL23R (11737362_x_at) / Fold change /veh IL23R (11737362_x_at) / RFU TMEM51 (11727254_a_at) / Fold change /veh TMEM51 (11727254_a_at) / RFU PIWIL2 (11732686_x_at) / Fold change /veh PIWIL2 (11732686_x_at) / RFU ORM1 (11744905_x_at) / Fold change /veh ORM1 (11744905_x_at) / RFU CCDC152 (11743942_at) / Fold change /veh CCDC152 (11743942_at) / RFU ECM1 (11717891_a_at) / Fold change /veh ECM1 (11717891_a_at) / RFU IL23R (11748794_a_at) / Fold change /veh IL23R (11748794_a_at) / RFU TNFAIP8L3 (11732012_x_at) / Fold change /veh TNFAIP8L3 (11732012_x_at) / RFU MBOAT4 (11741988_at) / Fold change /veh MBOAT4 (11741988_at) / RFU 11764193_at / Fold change /veh 11764193_at / RFU TMEM53 (11763286_at) / Fold change /veh TMEM53 (11763286_at) / RFU MAGEB2 (11727129_at) / Fold change /veh MAGEB2 (11727129_at) / RFU TMEM200A (11744735_a_at) / Fold change /veh TMEM200A (11744735_a_at) / RFU CCDC152 (11751479_a_at) / Fold change /veh CCDC152 (11751479_a_at) / RFU FAM211A (11726209_a_at) / Fold change /veh FAM211A (11726209_a_at) / RFU RGS16 (11746705_a_at) / Fold change /veh RGS16 (11746705_a_at) / RFU VCAN (11755009_s_at) / Fold change /veh VCAN (11755009_s_at) / RFU RHOB (11743442_s_at) / Fold change /veh RHOB (11743442_s_at) / RFU RGS16 (11720943_a_at) / Fold change /veh RGS16 (11720943_a_at) / RFU RGS16 (11720944_at) / Fold change /veh RGS16 (11720944_at) / RFU, VPS4B / Fold change vs veh, VPS4B / RFU, CREB1 / Fold change vs veh, CREB1 / RFU, DNAJC13 / Fold change vs veh, DNAJC13 / RFU, GNAQ / Fold change vs veh, GNAQ / RFU, CDK5R1 / Fold change vs veh, CDK5R1 / RFU, ZRANB3 / Fold change vs veh, ZRANB3 / RFU, CUL4A / Fold change vs veh, CUL4A / RFU, CCNY / Fold change vs veh, CCNY / RFU, UFL1 / Fold change vs veh, UFL1 / RFU, COG3 / Fold change vs veh, COG3 / RFU, DIAPH2 / Fold change vs veh, DIAPH2 / RFU, SKA2 / Fold change vs veh, SKA2 / RFU, AFF3 / Fold change vs veh, AFF3 / RFU, LMF1 / Fold change vs veh, LMF1 / RFU, IPO11 / Fold change vs veh, IPO11 / RFU, DFFB / Fold change vs veh, DFFB / RFU, FOXP1 / Fold change vs veh, FOXP1 / RFU, CARD8 / Fold change vs veh, CARD8 / RFU, STRN3 / Fold change vs veh, STRN3 / RFU, ADK / Fold change vs veh, ADK / RFU, RASSF2 / Fold change vs veh, RASSF2 / RFU, WIPF1 / Fold change vs veh, WIPF1 / RFU, LARP1B / Fold change vs veh, LARP1B / RFU, RASA1 / Fold change vs veh, RASA1 / RFU, RB1 / Fold change vs veh, RB1 / RFU, PPFIA1 / Fold change vs veh, PPFIA1 / RFU, MAT2A / Fold change vs veh, MAT2A / RFU, CCT5 / Fold change vs veh, CCT5 / RFU, WDR92 / Fold change vs veh, WDR92 / RFU, CUX1 / Fold change vs veh, CUX1 / RFU, TTC7A / Fold change vs veh, TTC7A / RFU, TMEM135 / Fold change vs veh, TMEM135 / RFU, DEPTOR / Fold change vs veh, DEPTOR / RFU, CPM / Fold change vs veh, CPM / RFU, DNAJB6 / Fold change vs veh, DNAJB6 / RFU, CACNA2D3 / Fold change vs veh, CACNA2D3 / RFU, DTX4 / Fold change vs veh, DTX4 / RFU, TFCP2 / Fold change vs veh, TFCP2 / RFU, GMCL1 /// GMCL1P1 / Fold change vs veh, GMCL1 /// GMCL1P1 / RFU, AEBP2 / Fold change vs veh, AEBP2 / RFU, SNHG1 /// SNORD22 /// SNORD25 /// SNORD26 /// SNORD27 /// SNORD28 /// SNORD29 /// SNORD31 / Fold change vs veh, SNHG1 /// SNORD22 /// SNORD25 /// SNORD26 /// SNORD27 /// SNORD28 /// SNORD29 /// SNORD31 / Fold change (Aza/veh), C12orf56 (ProbeSet 11735607_a_at) / Fold change (ACY-1035/veh), C12orf56 (ProbeSet 11735607_a_at) / Fold change (Aza/veh), FGFR1OP (ProbeSet 11751329_s_at) / Fold change (ACY-1035/veh), FGFR1OP (ProbeSet 11751329_s_at) / Fold change (Aza/veh), VPS36 (ProbeSet 11739960_a_at) / Fold change (ACY-1035/veh), VPS36 (ProbeSet 11739960_a_at) / RFU SYPL1 (11715823_x_at) / Fold change /veh SYPL1 (11715823_x_at) / RFU IGFBP7 (11715501_s_at) / Fold change /veh IGFBP7 (11715501_s_at) / RFU REEP3 (11722064_at) / Fold change /veh REEP3 (11722064_at) / RFU IGLL1 (11728026_x_at) / Fold change /veh IGLL1 (11728026_x_at): dose or concentration left out as unconfirmed
Details: ProbeSet 11725217_a_at; LIST B

## Nc1ccc(-c2cccs2)cc1NC(=O)c1ccc2c(c1)cc(C1CC1)n2CCN1CCOCC1 [ACY-1035]
  RFU, WDSUB1: 59.59 RFU
